# Assay: Antagonist activity at Escherichia coli UT189 FimH in guinea pig red blood cells assessed as disaggregation of bacteria after 600 secs by aggregometry assay
row,IC50 [µM],Structure (SMILES)
1,31,COC(=O)c1ccc(-c2ccc(Cl)c(O[C@H]3O[C@H](CO)[C@@H](O)[C@H](O)[C@@H]3O)c2)cc1
2,45,O=C(O)c1ccc(-c2ccc(O[C@H]3O[C@H](CO)[C@@H](O)[C@H](O)[C@@H]3O)cc2)cc1
3,41,COC(=O)c1ccc(-c2ccc(O[C@H]3O[C@H](CO)[C@@H](O)[C@H](O)[C@@H]3O)cc2Cl)cc1
4,17,O=C(O)c1ccc(-c2ccc(O[C@H]3O[C@H](CO)[C@@H](O)[C@H](O)[C@@H]3O)cc2Cl)cc1
5,45,O=C(O)c1ccc(-c2cccc(O[C@H]3O[C@H](CO)[C@@H](O)[C@H](O)[C@@H]3O)c2)cc1
6,9,COC(=O)c1ccc(-c2ccc(O[C@H]3O[C@H](CO)[C@@H](O)[C@H](O)[C@@H]3O)c(Cl)c2)cc1
7,10,O=C(O)c1ccc(-c2ccc(O[C@H]3O[C@H](CO)[C@@H](O)[C@H](O)[C@@H]3O)c(Cl)c2)cc1

row,Structure (SMILES),IC50 [µM]
1,COC(=O)c1ccc(-c2cc(Cl)c(O[C@H]3O[C@H](CO)[C@@H](O)[C@H](O)[C@@H]3O)c(Cl)c2)cc1,14

# From BindingDB's records for doi:10.1021/jm101011y (University of Basel, 2010)
